The record followed here is PubChem BioAssay AID588641 (Sanford-Burnham Center for Chemical Genomics, 2011).

Structures are written as SMILES. Activity calls are given as the source filed them. No rule for the calls is given here.

The target in this test is alkaline phosphatase, placental type (human). Nature of the test: PLAP enzyme inhibition by analogs, SAR follow-up, selectivity assay for mouse IAP inhibitor project, biochemical, human PLAP isozyme, set 2 (AID 588641). Particulars: purified human placental alkaline phosphatase, enzyme activity.
As for `COc1ccc(C(=O)N/N=C/c2c(F)cccc2Cl)cc1OC`, the IC50 was > 100 µM (inactive).

For the molecule `Cc1ccc(C)c(NC(=O)CNS(=O)(=O)c2ccc3[nH]c(=O)oc3c2)c1`, the IC50 was > 100 µM (inactive).

`Cc1ccc(NC(=O)CCNS(=O)(=O)c2ccc3c(c2)oc(=O)n3C)cc1`: the IC50 is > 100 µM (inactive).

For `CC(C)c1ccc(NC(=O)CCNS(=O)(=O)c2ccc3c(c2)oc(=O)n3C)cc1`, the IC50 is > 100 µM (inactive).

For `O=c1[nH]c2ccc(S(=O)(=O)NCCc3ccc4c(c3)OCO4)cc2o1`, the IC50 was > 100 µM (inactive).

As for `COc1cccc(C(=O)N/N=C/c2ccccc2F)c1`, the IC50 was > 100 µM (inactive).

As for `O=C(CCS(=O)(=O)Nc1ccc2[nH]c(=O)oc2c1)NCc1cccc(F)c1`, the IC50 was > 100 µM (inactive).

In the case of `COc1ccc(/C=N/NC(=O)c2cc(O)c(O)c(O)c2)c(OC)c1`, the IC50 was > 100 µM (inactive).

As for `COc1cc(/C=N/NC(=O)c2cc(O)c(O)c(O)c2)ccc1O`, the IC50 was > 100 µM (inactive).

As for `O=C(N/N=C/c1ccccc1Cl)c1cc(O)c(O)c(O)c1`, the IC50 was > 100 µM (inactive).

Regarding `O=C(CCNS(=O)(=O)c1ccc2[nH]c(=O)oc2c1)NCc1ccccc1`, the IC50 was > 100 µM (inactive).

`CC(C)c1ccc(NC(=O)C2CCCN(S(=O)(=O)c3ccc4c(c3)oc(=O)n4C)C2)cc1` (stereo not drawn): the IC50 was > 100 µM (inactive).

Consider `Cc1ccc(C)c(NS(=O)(=O)c2ccc3[nH]c(=O)oc3c2)c1`, for which the IC50 is > 100 µM (inactive).

On to `O=C(N/N=C/c1cc(Br)ccc1F)c1ccc(O)cc1`, for which the IC50 was > 100 µM (inactive).

Consider `O=C(N/N=C/c1ccc(F)cc1F)c1ccc(O)cc1`, for which the IC50 was > 100 µM (inactive).

Regarding `O=C(N/N=C/c1ccccc1F)c1ccc(O)cc1`, the IC50 was > 100 µM (inactive).

As for `Cc1cc(NC(=O)CCNS(=O)(=O)c2ccc3[nH]c(=O)oc3c2)ccc1Br`, the IC50 was > 100 µM (inactive).

For `Cc1ccc(C)c(NC(=O)CCNS(=O)(=O)c2ccc3ccccc3c2)c1`, the IC50 was > 100 µM (inactive).

Turning to `O=C(CCNS(=O)(=O)c1ccc2[nH]c(=O)oc2c1)NCc1ccccc1Cl`, the IC50 is > 100 µM (inactive).

For the molecule `COc1ccccc1CNC(=O)CCCNS(=O)(=O)c1ccc2[nH]c(=O)oc2c1`, the IC50 is > 100 µM (inactive).

`N#Cc1ccc(NC(=O)CNS(=O)(=O)c2ccc3[nH]c(=O)oc3c2)cc1`: the IC50 is > 100 µM (inactive).

For the molecule `O=C(CNS(=O)(=O)c1ccc2[nH]c(=O)oc2c1)NCCc1ccc2c(c1)OCO2`, the IC50 is > 100 µM (inactive).

As for `CC(C)Oc1ccc(CNC(=O)C2CCCN(S(=O)(=O)c3ccc4[nH]c(=O)oc4c3)C2)cc1` (stereo not drawn), the IC50 was > 100 µM (inactive).

Take `O=C(N/N=C/c1ccccc1F)c1ccc(O)cc1O`: the IC50 was > 100 µM (inactive).

In the case of `CCOc1ccc(CNC(=O)C2CCCN(S(=O)(=O)c3ccc4[nH]c(=O)oc4c3)C2)cc1OC` (stereo not drawn), the IC50 was > 100 µM (inactive).

For `O=C(CCNS(=O)(=O)c1ccc2[nH]c(=O)oc2c1)NCc1ccc(O)c(O)c1`, the IC50 was > 100 µM (inactive).

Turning to `O=C(CCCNS(=O)(=O)c1ccc2[nH]c(=O)oc2c1)NCc1ccc2c(c1)OCO2`, the IC50 was > 100 µM (inactive).

In the case of `COc1ccc(CCNC(=O)CCCNS(=O)(=O)c2ccc3[nH]c(=O)oc3c2)cc1OC`, the IC50 is > 100 µM (inactive).

`CC(=NNC(=O)c1ccccc1OCCOc1ccccc1)c1ccccc1F`: the IC50 was > 100 µM (inactive).

Consider `O=C(CCNS(=O)(=O)c1ccc2[nH]c(=O)oc2c1)NCc1ccc(F)cc1`, for which the IC50 is > 100 µM (inactive).

Consider `O=C(N/N=C/c1c(F)cccc1Cl)c1cc(O)c(O)c(O)c1`, for which the IC50 was > 100 µM (inactive).

For the molecule `O=C(CCNS(=O)(=O)c1ccc2[nH]c(=O)oc2c1)NCc1cccc(Cl)c1`, the IC50 was > 100 µM (inactive).

In the case of `O=C(CCNS(=O)(=O)c1ccc2[nH]c(=O)oc2c1)NCCc1ccc2c(c1)OCO2`, the IC50 is > 100 µM (inactive).

For `O=C(CCNS(=O)(=O)c1ccc2[nH]c(=O)oc2c1)NCc1cccc(C(F)(F)F)c1`, the IC50 is > 100 µM (inactive).

Regarding `COc1cccc(CNC(=O)CCNS(=O)(=O)c2ccc3[nH]c(=O)oc3c2)c1`, the IC50 is > 100 µM (inactive).

As for `COc1ccc(CNS(=O)(=O)c2ccc3[nH]c(=O)oc3c2)c(OC)c1`, the IC50 was > 100 µM (inactive).

Regarding `O=c1[nH]c2ccc(S(=O)(=O)NCc3ccc4c(c3)OCO4)cc2o1`, the IC50 was > 100 µM (inactive).

Consider `CSc1cccc(NC(=O)CCNS(=O)(=O)c2ccc3c(c2)oc(=O)n3C)c1`, for which the IC50 is > 100 µM (inactive).

As usually defined, the IC50 is the concentration at which inhibition is half-maximal.
